What is called IC50 is the point on the concentration scale where inhibition reaches its midpoint.

Data on three compounds can be found in paper PMC9281569, “Two HCN4 Channels Play Functional Roles in the Zebrafish Heart” (Frontiers in Physiology, 2022).

Each structure is given as a SMILES string. Several values for one entry are separate records, joined by “and”; a condition that tells them apart may be missing. Equal values may be shown once. Where a name gives a salt, the structure may show the parent alone. Read-outs that look alike come from different tables or passages of the source.

Data set [1] deals with developing zebrafish embryos. Nature of the data set: HCN inhibitors in egg water: heart rate of developing zebrafish embryos. As to conditions: for Effect on heart rate, concentration dependence: 10 μM, 100 μM, 24 h and 48 h; for Effect on heart rate, concentration dependence / Heart rate recovery after washout: 1 mM; for Heart rate recovery after washout: 6 h after washout; for Pericardial edema in inhibitor-treated zebrafish: zebrafish embryos treated with inhibitor.

The target in the next data set is T1, DrHCN4 (Danio rerio, UniProt A0A8N7UQR8).
T1 sequence (A0A8N7UQR8 1-1140): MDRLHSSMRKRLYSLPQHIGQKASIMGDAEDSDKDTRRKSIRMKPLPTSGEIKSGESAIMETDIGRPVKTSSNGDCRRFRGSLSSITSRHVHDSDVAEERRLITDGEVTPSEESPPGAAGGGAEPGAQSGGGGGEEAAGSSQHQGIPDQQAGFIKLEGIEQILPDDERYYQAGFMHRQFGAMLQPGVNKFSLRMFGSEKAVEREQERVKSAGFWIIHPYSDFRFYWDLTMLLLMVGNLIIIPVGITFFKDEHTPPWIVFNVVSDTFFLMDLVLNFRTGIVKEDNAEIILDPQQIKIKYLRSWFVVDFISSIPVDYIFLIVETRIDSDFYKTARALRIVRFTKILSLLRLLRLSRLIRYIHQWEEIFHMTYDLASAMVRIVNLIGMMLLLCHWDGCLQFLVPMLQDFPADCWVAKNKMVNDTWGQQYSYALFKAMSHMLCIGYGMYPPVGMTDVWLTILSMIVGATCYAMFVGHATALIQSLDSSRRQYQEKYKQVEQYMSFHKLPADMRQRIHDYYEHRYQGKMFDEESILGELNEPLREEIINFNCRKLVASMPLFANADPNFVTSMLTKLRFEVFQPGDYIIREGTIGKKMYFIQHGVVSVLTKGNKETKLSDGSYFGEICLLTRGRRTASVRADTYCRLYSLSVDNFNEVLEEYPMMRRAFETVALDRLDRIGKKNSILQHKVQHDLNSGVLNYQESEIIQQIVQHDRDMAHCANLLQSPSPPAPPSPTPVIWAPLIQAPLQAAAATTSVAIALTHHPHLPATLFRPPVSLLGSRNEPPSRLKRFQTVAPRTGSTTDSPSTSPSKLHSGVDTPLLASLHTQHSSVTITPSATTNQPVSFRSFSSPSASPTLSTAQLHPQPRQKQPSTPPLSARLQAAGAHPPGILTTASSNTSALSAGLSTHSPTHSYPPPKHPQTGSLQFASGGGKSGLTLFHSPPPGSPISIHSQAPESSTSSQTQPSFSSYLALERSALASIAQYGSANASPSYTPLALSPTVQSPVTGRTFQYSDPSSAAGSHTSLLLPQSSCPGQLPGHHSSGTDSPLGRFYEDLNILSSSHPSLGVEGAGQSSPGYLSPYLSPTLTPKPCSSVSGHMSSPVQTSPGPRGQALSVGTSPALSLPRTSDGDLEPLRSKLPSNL
Nature of the data set: Inhibition of HCN4 currents in Xenopus oocytes, two-electrode voltage clamp. The format is cell-based, zebrafish (Danio rerio). As to conditions: holding −30 mV, hyperpolarized to −120 mV for 2 s, room temperature. A general note: In two-electrode clamp one electrode senses voltage and the other passes current.

For data set [2], the system named is Isolated adult zebrafish heart. Also noted: method as in Stoyek et al., 2022. As to conditions: bath application; ref Stoyek et al., 2022; cited from earlier work.
Another data set concerns patients. Also noted: method as in Swedberg et al., 2010. As to conditions: administration to patients; ref Swedberg et al., 2010; cited from earlier work.
Where [3] appears, read: 0 h (24 hpf), before application of inhibitor, 10 μM group.
The mark [4] stands for this setting: 0 h (24 hpf), before application of inhibitor, 100 μM group.
[5] abbreviates: 0 h (24 hpf), before application of inhibitor, 1 mM group.
Where [6] appears, read: 24 h after application, 10 μM in egg water.
The mark [7] stands for this setting: 24 h after application, 100 μM in egg water.
The mark [8] stands for this setting: 24 h after application, 1 mM in egg water.
The mark [9] stands for this setting: 48 h after application, 10 μM in egg water.
Where [10] appears, read: 48 h after application, 100 μM in egg water.
The mark [11] stands for this setting: 48 h after application, 1 mM in egg water.
Setting [12] is: Washout, 6 h in inhibitor-free water after 48 h, 10 μM group.
Setting [13] is: Washout, 6 h in inhibitor-free water after 48 h, 100 μM group.
Setting [14] is: Washout, 6 h in inhibitor-free water after 48 h, 1 mM group.
Setting [15] is: DrHCN4 in Xenopus oocytes, read-out: IC50.

Turning to `CCN(c1ccccc1)c1cc(=NC)n(C)c(C)n1.Cl` [ZD7288], the Heart rate in data set [1] (setting [3]) turned out to be 81 ± 4 bpm; in data set [1] (setting [4]), 80 ± 3 bpm; in data set [1] (setting [5]) it was 84 ± 3 bpm; in data set [1] (setting [6]), 150 ± 3 bpm; in data set [1] (setting [7]) it was 129 ± 1 bpm; in data set [1] (setting [8]) it was 113 ± 3 bpm. The Heart rate in data set [1] (setting [9]) worked out at 142 ± 2 bpm; in data set [1] (setting [10]), 97 ± 4 bpm; in data set [1] (setting [11]), 94 ± 2 bpm; in data set [1] (setting [12]) it was 160 ± 3 bpm; in data set [1] (setting [13]), 140 ± 4 bpm; in data set [1] (setting [14]), 115 ± 2 bpm. Besides, the “Effect on heart rate, concentration dependence” value in data set [1] is given as “significantly lowered heart rate, except for a concentration of 10 μM at 24 h”. For the same compound, the “Heart rate recovery after washout” value in data set [1] is on record as “recovered”. Also, the “Pericardial edema in inhibitor-treated zebrafish” value in data set [1] is “no pericardial edema was observed”. Also, at DrHCN4 (setting [15]), the IC50 is 699 ± 216 µM.

For the compound `[Cl-].[Cs+]` [Cesium ion, Cesium chloride], the “Block of isolated adult zebrafish heart” value in data set [2] is on record as 73%. The Heart rate in data set [1] (setting [5]) is listed as 89 ± 1 bpm; in data set [1] (setting [8]), 131 ± 2 bpm; in data set [1] (setting [11]), 133 ± 2 bpm; in data set [1] (setting [14]) it was 139 ± 3 bpm. Further, the IC50 at DrHCN4 (DrHCN4 in Xenopus oocytes, listed as Cs^+, read-out: IC50) came to 44 ± 11 µM; on DrHCN4 (setting [15]), 44.3 ± 11.2 µM.

For the compound `COc1cc2c(cc1OC)CC(=O)N(CCCN(C)C[C@H]1Cc3cc(OC)c(OC)cc31)CC2` [Ivabradine, ivabradine hydrochloride], the “Block of isolated adult zebrafish heart” value in data set [2] is given as 86%. The Heart rate in data set [1] (setting [3]) was 81 ± 3 bpm; in data set [1] (setting [4]), 81 ± 2 bpm; in data set [1] (setting [5]), 85 ± 2 bpm; in data set [1] (setting [6]), 134 ± 4 bpm; in data set [1] (setting [7]) it was 124 ± 5 bpm; in data set [1] (setting [8]) it was 98 ± 2 bpm. In addition, the Heart rate in data set [1] (setting [9]) came out at 133 ± 2 bpm; in data set [1] (setting [10]) it was 101 ± 2 bpm; in data set [1] (setting [11]) it was 72 ± 2 bpm; in data set [1] (setting [12]) it was 149 ± 3 bpm; in data set [1] (setting [13]), 133 ± 3 bpm; in data set [1] (setting [14]), 115 ± 3 bpm. Besides, in data set [1], the “Effect on heart rate, concentration dependence” value is “significantly suppressed heart rate at all concentrations and time points”. Also, the “Heart rate recovery after washout” value in data set [1] is reported as “recovered”. Besides, the “Pericardial edema in inhibitor-treated zebrafish” value in data set [1] is reported as “no pericardial edema was observed”. Besides, the IC50 at DrHCN4 (IC50, DrHCN4 in Xenopus oocytes) is 31 µM and 30.9 µM. In the data set on patients, the “Reduction of heart rate” value is reported as “about 20%”.
